In the kinase profiling compilation of Christmann-Franck et al. (2016):

Experiments:
Assay in all cases: KINOMEscan competition binding
Conditions in all cases: compound 10.0 µM
[1] = biological target: PIK3C2B (human) (UniProt O00750)
[2] = biological target: PAK3 (human) (UniProt O75914)
[3] = biological target: ACVR2A (human) (UniProt P27037)
[4] = biological target: STK11 (human) (UniProt Q15831)
[5] = biological target: MERTK (human) (UniProt Q12866)
[6] = biological target: STK17A (human) (UniProt Q9UEE5)
STK17A (human), sequence (Q9UEE5 whole entry, looked up): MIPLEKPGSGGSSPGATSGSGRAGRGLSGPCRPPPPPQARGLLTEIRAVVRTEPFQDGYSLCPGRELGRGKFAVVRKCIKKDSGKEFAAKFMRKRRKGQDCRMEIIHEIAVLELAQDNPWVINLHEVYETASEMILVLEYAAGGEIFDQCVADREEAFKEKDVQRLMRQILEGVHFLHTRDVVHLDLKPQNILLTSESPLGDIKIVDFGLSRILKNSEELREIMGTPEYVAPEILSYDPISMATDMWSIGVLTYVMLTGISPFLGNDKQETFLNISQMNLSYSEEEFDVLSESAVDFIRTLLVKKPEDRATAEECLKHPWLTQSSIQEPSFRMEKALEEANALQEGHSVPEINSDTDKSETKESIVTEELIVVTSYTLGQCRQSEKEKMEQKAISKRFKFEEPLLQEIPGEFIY

[7] = biological target: STK4 (human) (UniProt Q13043)
[8] = tested on: KIT (human), P10721 [V559D]
KIT (human), P10721 [V559D], sequence (P10721 whole entry V559D, looked up): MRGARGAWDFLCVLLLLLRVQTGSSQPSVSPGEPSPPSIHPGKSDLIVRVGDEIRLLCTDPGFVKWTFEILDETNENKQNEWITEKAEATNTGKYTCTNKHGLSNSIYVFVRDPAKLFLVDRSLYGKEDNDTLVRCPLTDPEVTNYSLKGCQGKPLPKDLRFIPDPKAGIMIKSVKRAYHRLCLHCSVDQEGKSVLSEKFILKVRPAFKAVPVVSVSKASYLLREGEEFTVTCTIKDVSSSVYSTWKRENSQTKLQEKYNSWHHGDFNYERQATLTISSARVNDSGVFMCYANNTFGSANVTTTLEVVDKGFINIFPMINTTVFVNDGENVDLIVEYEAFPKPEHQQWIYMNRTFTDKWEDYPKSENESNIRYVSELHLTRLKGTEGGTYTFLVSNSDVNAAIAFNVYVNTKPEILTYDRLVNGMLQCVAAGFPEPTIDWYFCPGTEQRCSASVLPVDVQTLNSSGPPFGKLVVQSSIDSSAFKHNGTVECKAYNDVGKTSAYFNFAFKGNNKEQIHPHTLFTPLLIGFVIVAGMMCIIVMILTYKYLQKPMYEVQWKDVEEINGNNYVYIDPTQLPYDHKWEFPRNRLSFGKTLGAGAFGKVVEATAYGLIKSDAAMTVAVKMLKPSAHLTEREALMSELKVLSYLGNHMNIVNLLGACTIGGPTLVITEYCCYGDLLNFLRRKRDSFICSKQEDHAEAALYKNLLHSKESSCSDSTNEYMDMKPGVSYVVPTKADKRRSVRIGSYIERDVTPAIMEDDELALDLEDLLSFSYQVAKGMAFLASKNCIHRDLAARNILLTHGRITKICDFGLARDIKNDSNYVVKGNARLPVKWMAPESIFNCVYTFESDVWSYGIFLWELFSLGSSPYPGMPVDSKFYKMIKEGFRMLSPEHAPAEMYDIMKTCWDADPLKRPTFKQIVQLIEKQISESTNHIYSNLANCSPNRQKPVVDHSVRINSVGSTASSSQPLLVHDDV

[9] = biological target: MAP3K11 (human) (UniProt Q16584)
[10] = biological target: CSNK1A1L (human) (UniProt Q8N752)
CSNK1A1L (human), sequence (Q8N752 whole entry, looked up): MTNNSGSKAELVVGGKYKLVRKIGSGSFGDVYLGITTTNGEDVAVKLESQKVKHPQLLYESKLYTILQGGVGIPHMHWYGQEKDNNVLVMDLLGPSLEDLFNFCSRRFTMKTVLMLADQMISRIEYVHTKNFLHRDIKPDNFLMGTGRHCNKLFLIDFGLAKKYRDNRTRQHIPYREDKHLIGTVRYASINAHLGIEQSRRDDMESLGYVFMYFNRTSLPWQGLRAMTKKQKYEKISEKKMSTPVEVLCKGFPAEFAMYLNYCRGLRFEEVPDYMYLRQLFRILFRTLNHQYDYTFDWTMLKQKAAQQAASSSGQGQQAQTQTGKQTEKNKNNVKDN

[11] = biological target: PRKAA2 (human) (UniProt P54646)
[12] = biological target: AURKB (human) (UniProt Q96GD4)
[13] = biological target: STK24 (human) (UniProt Q9Y6E0)
[14] = biological target: PLK1 (human) (UniProt P53350)
[15] = biological target: FGFR1 (human) (UniProt P11362)
FGFR1 (human), sequence (P11362 whole entry, looked up): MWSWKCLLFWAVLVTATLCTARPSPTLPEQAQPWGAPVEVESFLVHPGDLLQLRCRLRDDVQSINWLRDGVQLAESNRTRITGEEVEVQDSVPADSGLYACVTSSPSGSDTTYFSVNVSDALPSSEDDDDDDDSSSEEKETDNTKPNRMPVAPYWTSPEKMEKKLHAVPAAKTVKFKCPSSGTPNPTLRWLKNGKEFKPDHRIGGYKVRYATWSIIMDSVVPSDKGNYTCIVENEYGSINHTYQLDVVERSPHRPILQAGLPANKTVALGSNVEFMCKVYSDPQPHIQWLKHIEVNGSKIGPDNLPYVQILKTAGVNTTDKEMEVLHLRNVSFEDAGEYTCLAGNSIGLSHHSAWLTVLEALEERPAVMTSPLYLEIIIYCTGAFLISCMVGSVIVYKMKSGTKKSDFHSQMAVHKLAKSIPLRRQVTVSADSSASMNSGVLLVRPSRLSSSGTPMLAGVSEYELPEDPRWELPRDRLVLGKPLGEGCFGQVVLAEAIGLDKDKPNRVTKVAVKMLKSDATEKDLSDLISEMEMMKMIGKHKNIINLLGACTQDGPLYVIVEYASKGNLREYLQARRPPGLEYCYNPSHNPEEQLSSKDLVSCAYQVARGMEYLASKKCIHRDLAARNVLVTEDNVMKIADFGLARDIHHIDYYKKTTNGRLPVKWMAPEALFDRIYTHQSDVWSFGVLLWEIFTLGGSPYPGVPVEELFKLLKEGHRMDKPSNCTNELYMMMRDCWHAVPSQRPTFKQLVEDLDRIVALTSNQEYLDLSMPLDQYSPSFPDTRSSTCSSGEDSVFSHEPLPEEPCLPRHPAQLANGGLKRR

[16] = biological target: MAP4K3 (human) (UniProt Q8IVH8)
[17] = biological target: MST1R (human) (UniProt Q04912)
[18] = biological target: FRK (human) (UniProt P42685)
[19] = biological target: TYK2 JH1 catalytic (human) (UniProt P29597)
[20] = biological target: CDC42BPA (human) (UniProt Q5VT25)
[21] = tested on: ABL1 (human), P00519 [M351T]
[22] = biological target: INSR (human) (UniProt P06213)
[23] = biological target: TGFBR2 (human) (UniProt P37173)
TGFBR2 (human), sequence (P37173 whole entry, looked up): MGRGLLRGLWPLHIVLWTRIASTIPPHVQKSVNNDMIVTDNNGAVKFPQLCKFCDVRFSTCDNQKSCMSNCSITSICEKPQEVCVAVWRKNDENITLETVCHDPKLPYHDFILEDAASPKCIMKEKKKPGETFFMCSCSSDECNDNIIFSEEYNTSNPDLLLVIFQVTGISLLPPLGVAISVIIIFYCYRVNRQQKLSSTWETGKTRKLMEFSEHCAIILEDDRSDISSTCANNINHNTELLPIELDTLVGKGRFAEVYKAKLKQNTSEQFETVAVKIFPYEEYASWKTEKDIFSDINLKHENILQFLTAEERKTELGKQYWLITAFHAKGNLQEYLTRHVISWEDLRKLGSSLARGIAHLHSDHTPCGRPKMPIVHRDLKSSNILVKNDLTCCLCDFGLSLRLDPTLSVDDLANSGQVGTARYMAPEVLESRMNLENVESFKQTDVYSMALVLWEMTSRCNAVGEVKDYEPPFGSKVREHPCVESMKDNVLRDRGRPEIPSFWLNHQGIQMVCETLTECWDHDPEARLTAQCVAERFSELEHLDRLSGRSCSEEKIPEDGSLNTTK

[24] = biological target: NEK9 (human) (UniProt Q8TD19)
[25] = biological target: CDK17 (human) (UniProt Q00537)
[26] = biological target: BMPR1A (human) (UniProt P36894)
[27] = biological target: CDK5 (human) (UniProt Q00535)
[28] = biological target: DAPK2 (human) (UniProt Q9UIK4)
[29] = biological target: CHEK1 (human) (UniProt O14757)
[30] = biological target: DMPK (human) (UniProt Q09013)
DMPK (human), sequence (Q09013 whole entry, looked up): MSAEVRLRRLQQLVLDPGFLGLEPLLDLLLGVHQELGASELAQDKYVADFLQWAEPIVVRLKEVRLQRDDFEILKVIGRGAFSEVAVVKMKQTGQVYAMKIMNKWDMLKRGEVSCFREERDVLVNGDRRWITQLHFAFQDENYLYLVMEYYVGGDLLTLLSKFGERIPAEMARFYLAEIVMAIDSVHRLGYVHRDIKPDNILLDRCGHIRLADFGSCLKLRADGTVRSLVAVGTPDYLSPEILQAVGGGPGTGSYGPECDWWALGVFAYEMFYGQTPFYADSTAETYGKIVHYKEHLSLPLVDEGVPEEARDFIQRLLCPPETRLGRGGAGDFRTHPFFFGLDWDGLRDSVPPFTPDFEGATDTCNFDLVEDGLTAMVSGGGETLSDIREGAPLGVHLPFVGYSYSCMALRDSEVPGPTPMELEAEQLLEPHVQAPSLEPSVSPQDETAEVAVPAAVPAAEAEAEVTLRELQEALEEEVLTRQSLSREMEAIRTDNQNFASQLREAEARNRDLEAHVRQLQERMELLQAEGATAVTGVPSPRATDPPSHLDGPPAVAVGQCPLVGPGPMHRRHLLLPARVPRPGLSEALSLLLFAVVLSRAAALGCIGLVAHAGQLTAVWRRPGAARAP

[31] = biological target: INSRR (human) (UniProt P14616)
INSRR (human), sequence (P14616 whole entry, looked up): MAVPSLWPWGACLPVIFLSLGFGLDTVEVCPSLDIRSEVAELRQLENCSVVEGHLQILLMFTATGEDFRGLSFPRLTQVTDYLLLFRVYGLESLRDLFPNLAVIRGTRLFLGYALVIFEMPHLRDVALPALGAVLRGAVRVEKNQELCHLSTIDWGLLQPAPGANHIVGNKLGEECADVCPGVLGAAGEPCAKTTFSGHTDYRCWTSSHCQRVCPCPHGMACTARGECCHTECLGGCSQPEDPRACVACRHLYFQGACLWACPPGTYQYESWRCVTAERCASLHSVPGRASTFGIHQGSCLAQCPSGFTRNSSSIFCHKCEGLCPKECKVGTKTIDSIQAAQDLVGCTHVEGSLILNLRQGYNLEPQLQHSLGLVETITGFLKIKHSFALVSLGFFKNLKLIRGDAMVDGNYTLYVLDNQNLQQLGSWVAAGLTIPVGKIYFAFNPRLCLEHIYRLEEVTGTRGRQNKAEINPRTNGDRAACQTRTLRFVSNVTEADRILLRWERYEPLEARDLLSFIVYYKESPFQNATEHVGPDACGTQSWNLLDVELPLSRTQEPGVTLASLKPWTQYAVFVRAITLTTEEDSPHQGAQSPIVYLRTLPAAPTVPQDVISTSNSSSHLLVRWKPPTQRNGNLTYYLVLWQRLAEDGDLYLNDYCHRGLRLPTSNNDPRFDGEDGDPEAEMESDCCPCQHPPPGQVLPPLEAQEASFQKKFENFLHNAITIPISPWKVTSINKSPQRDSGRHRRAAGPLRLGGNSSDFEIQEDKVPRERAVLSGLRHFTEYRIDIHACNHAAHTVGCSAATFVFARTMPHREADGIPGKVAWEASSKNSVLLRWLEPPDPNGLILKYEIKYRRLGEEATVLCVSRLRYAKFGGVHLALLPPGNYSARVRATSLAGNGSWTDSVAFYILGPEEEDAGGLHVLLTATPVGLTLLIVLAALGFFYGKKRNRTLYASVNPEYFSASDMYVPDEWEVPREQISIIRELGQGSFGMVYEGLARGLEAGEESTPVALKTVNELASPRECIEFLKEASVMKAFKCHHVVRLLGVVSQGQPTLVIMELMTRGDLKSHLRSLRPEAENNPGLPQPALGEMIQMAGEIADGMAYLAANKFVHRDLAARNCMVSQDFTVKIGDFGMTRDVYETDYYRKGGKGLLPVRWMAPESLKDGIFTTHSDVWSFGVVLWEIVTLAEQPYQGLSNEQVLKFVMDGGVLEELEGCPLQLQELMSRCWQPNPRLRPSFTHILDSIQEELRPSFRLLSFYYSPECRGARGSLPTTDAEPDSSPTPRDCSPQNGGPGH

[32] = tested on: FLT3 (human), P36888 [N841I]
[33] = biological target: MAPK8 (human) (UniProt P45983)
[34] = biological target: CLK4 (human) (UniProt Q9HAZ1)
[35] = biological target: CAMK2G (human) (UniProt Q13555)
[36] = biological target: CDC42BPG (human) (UniProt Q6DT37)
[37] = biological target: JAK3 JH1 catalytic (human) (UniProt P52333)
[38] = biological target: TLK2 (human) (UniProt Q86UE8)
[39] = biological target: MARK3 (human) (UniProt P27448)
[40] = biological target: PIK3CD (human) (UniProt O00329)

Row | Structure (SMILES) | kinase still bound, per cent of control [1] [%] | kinase still bound, per cent of control [2] [%] | kinase still bound, per cent of control [3] [%] | kinase still bound, per cent of control [4] [%] | kinase still bound, per cent of control [5] [%] | kinase still bound, per cent of control [6] [%] | kinase still bound, per cent of control [7] [%] | kinase still bound, per cent of control [8] [%] | kinase still bound, per cent of control [9] [%] | kinase still bound, per cent of control [10] [%] | kinase still bound, per cent of control [11] [%] | kinase still bound, per cent of control [12] [%] | kinase still bound, per cent of control [13] [%] | kinase still bound, per cent of control [14] [%] | kinase still bound, per cent of control [15] [%] | kinase still bound, per cent of control [16] [%] | kinase still bound, per cent of control [18] [%] | kinase still bound, per cent of control [19] [%] | kinase still bound, per cent of control [20] [%] | kinase still bound, per cent of control [21] [%] | further results
1 | CCOc1cc2ncc(C#N)c(Nc3ccc(OCc4ccccn4)c(Cl)c3)c2cc1NC(=O)/C=C/CN(C)C | 100 | 100 | 100 | 94 | 8.4 | 37 | 17 | 100 | 85 | 98 | 80 | 75 | 0.35 | 57 | 100 | 2.1 | 100 | 100 | 91 | 100 | kinase still bound, per cent of control [17]: 100%; kinase still bound, per cent of control [22]: 46%; kinase still bound, per cent of control [23]: 100%; kinase still bound, per cent of control [24]: 100%; kinase still bound, per cent of control [25]: 100%; kinase still bound, per cent of control [26]: 89%; kinase still bound, per cent of control [27]: 100%; kinase still bound, per cent of control [28]: 87%; kinase still bound, per cent of control [29]: 65%; kinase still bound, per cent of control [30]: 98%; kinase still bound, per cent of control [31]: 94%; kinase still bound, per cent of control [32]: 64%; kinase still bound, per cent of control [33]: 16%; kinase still bound, per cent of control [34]: 100%; kinase still bound, per cent of control [35]: 95%; kinase still bound, per cent of control [36]: 100%; kinase still bound, per cent of control [37]: 100%
2 | Cc1cc([C@@H](C)Nc2ccccc2C(=O)O)c2nc(N3CCOCC3)cc(=O)n2c1 | 0.35 | 98 | 94 | 98 | 100 | 98 | 95 | 91 | 100 | 100 | 88 | 96 | 100 | 100 | 89 | 88 | 83 | 82 | 96 | 94 | kinase still bound, per cent of control [38]: 88%; kinase still bound, per cent of control [22]: 100%; kinase still bound, per cent of control [23]: 95%; kinase still bound, per cent of control [24]: 100%; kinase still bound, per cent of control [25]: 100%; kinase still bound, per cent of control [39]: 89%; kinase still bound, per cent of control [26]: 97%; kinase still bound, per cent of control [27]: 100%; kinase still bound, per cent of control [28]: 92%; kinase still bound, per cent of control [29]: 100%; kinase still bound, per cent of control [30]: 100%; kinase still bound, per cent of control [31]: 100%; kinase still bound, per cent of control [32]: 44%; kinase still bound, per cent of control [33]: 100%; kinase still bound, per cent of control [34]: 68%; kinase still bound, per cent of control [35]: 98%; kinase still bound, per cent of control [36]: 100%; kinase still bound, per cent of control [37]: 94%
3 | CCC(=O)N1CCN(c2ccc(-n3c(=O)ccc4cnc5ccc(-c6cnc7ccccc7c6)cc5c43)cc2C(F)(F)F)CC1 | 25 | 100 | 47 | 100 | 53 | 93 | 7.6 | 50 | 69 | 81 | 74 | 82 | 100 | 85 | 96 | 1.9 | 60 | 70 | 0.65 | 100 | kinase still bound, per cent of control [38]: 100%; kinase still bound, per cent of control [17]: 55%; kinase still bound, per cent of control [22]: 7.6%; kinase still bound, per cent of control [23]: 77%; kinase still bound, per cent of control [24]: 100%; kinase still bound, per cent of control [25]: 97%; kinase still bound, per cent of control [39]: 100%; kinase still bound, per cent of control [26]: 100%; kinase still bound, per cent of control [27]: 100%; kinase still bound, per cent of control [30]: 77%; kinase still bound, per cent of control [31]: 100%; kinase still bound, per cent of control [32]: 8.8%; kinase still bound, per cent of control [40]: 51%; kinase still bound, per cent of control [33]: 22%; kinase still bound, per cent of control [34]: 49%; kinase still bound, per cent of control [35]: 79%; kinase still bound, per cent of control [36]: 1.6%; kinase still bound, per cent of control [37]: 100%
